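Briefly, cells in 96-well plates were exposed to five compound concentrations for 48 h, and endpoints were estimated by linear interpolation. TGI marks complete inhibition of growth.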
Legend:
Assay in all cases: growth of human tumour cells (NCI), 48 h
786-0 renal = tested on: 786-0 renal
A549 NSCLC = tested on: A549 NSCLC
ACHN renal = tested on: ACHN renal
BT-549 breast = tested on: BT-549 breast
CAKI-1 renal = tested on: CAKI-1 renal
CCRF-CEM leukemia = tested on: CCRF-CEM leukemia
COLO 205 colon = tested on: COLO 205 colon
DU-145 prostate = tested on: DU-145 prostate
EKVX NSCLC = tested on: EKVX NSCLC
HCC-2998 colon = tested on: HCC-2998 colon
HCT-116 colon = tested on: HCT-116 colon
HCT-15 colon = tested on: HCT-15 colon
HL-60(TB) leukemia = tested on: HL-60(TB) leukemia
HOP-62 NSCLC = tested on: HOP-62 NSCLC
HOP-92 NSCLC = tested on: HOP-92 NSCLC
HS 578T breast = tested on: HS 578T breast
HT29 colon = tested on: HT29 colon
IGROV1 ovarian = tested on: IGROV1 ovarian
K-562 leukemia = tested on: K-562 leukemia
KM12 colon = tested on: KM12 colon
LOX IMVI melanoma = tested on: LOX IMVI melanoma
M14 melanoma = tested on: M14 melanoma
MALME-3M melanoma = tested on: MALME-3M melanoma
MCF7 breast = tested on: MCF7 breast
MDA-MB-231 breast = tested on: MDA-MB-231 breast
MDA-MB-435 = tested on: MDA-MB-435
MDA-N = tested on: MDA-N
MOLT-4 leukemia = tested on: MOLT-4 leukemia
NCI-H226 lung = tested on: NCI-H226 lung
NCI-H23 lung = tested on: NCI-H23 lung
NCI-H460 lung = tested on: NCI-H460 lung
NCI/ADR-RES ovarian = tested on: NCI/ADR-RES ovarian
OVCAR-3 ovarian = tested on: OVCAR-3 ovarian
OVCAR-4 ovarian = tested on: OVCAR-4 ovarian
OVCAR-5 ovarian = tested on: OVCAR-5 ovarian
OVCAR-8 ovarian = tested on: OVCAR-8 ovarian
PC-3 prostate = tested on: PC-3 prostate
RPMI-8226 leukemia = tested on: RPMI-8226 leukemia
RXF 393 renal = tested on: RXF 393 renal
SF-268 CNS = tested on: SF-268 CNS
SF-295 CNS = tested on: SF-295 CNS
SF-539 CNS = tested on: SF-539 CNS
SK-MEL-2 melanoma = tested on: SK-MEL-2 melanoma
SK-MEL-28 melanoma = tested on: SK-MEL-28 melanoma
SK-MEL-5 melanoma = tested on: SK-MEL-5 melanoma
SK-OV-3 ovarian = tested on: SK-OV-3 ovarian
SN12C renal = tested on: SN12C renal
SNB-19 CNS = tested on: SNB-19 CNS
SR leukemia = tested on: SR leukemia
SW-620 colon = tested on: SW-620 colon
T-47D breast = tested on: T-47D breast
TK-10 renal = tested on: TK-10 renal
U251 CNS = tested on: U251 CNS
UACC-257 melanoma = tested on: UACC-257 melanoma
UACC-62 melanoma = tested on: UACC-62 melanoma
UO-31 renal = tested on: UO-31 renal
A498 renal = tested on: A498 renal
NCI-H522 lung = tested on: NCI-H522 lung
SNB-75 CNS = tested on: SNB-75 CNS

## COc1cc2c(cc1OC)C(=O)/C(=C/c1ccc(O)cc1)CC2
786-0 renal
  TGI: > 10 µM
A549 NSCLC
  TGI: > 10 µM
ACHN renal
  TGI: > 10 µM
BT-549 breast
  TGI: > 10 µM
CAKI-1 renal
  TGI: > 10 µM
CCRF-CEM leukemia
  TGI: > 10 µM
COLO 205 colon
  TGI: > 10 µM
DU-145 prostate
  TGI: > 10 µM
EKVX NSCLC
  TGI: > 10 µM
HCC-2998 colon
  TGI: > 10 µM
HCT-116 colon
  TGI: > 10 µM
HCT-15 colon
  TGI: > 10 µM
HL-60(TB) leukemia
  TGI: > 10 µM
HOP-62 NSCLC
  TGI: > 10 µM
HOP-92 NSCLC
  TGI: > 10 µM
HS 578T breast
  TGI: > 10 µM
HT29 colon
  TGI: > 10 µM
IGROV1 ovarian
  TGI: > 10 µM
K-562 leukemia
  TGI: > 10 µM
KM12 colon
  TGI: > 10 µM
LOX IMVI melanoma
  TGI: > 10 µM
M14 melanoma
  TGI: > 10 µM
MALME-3M melanoma
  TGI: > 10 µM
MCF7 breast
  TGI: > 10 µM
MDA-MB-231 breast
  TGI: > 10 µM
MDA-MB-435
  TGI: > 10 µM
MDA-N
  TGI: > 10 µM
MOLT-4 leukemia
  TGI: > 10 µM
NCI-H226 lung
  TGI: > 10 µM
NCI-H23 lung
  TGI: > 10 µM
NCI-H460 lung
  TGI: > 10 µM
NCI/ADR-RES ovarian
  TGI: > 10 µM
OVCAR-3 ovarian
  TGI: > 10 µM
OVCAR-4 ovarian
  TGI: > 10 µM
OVCAR-5 ovarian
  TGI: > 10 µM
OVCAR-8 ovarian
  TGI: > 10 µM
PC-3 prostate
  TGI: > 10 µM
RPMI-8226 leukemia
  TGI: > 10 µM
RXF 393 renal
  TGI: > 10 µM
SF-268 CNS
  TGI: > 10 µM
SF-295 CNS
  TGI: > 10 µM
SF-539 CNS
  TGI: > 10 µM
SK-MEL-2 melanoma
  TGI: > 10 µM
SK-MEL-28 melanoma
  TGI: > 10 µM
SK-MEL-5 melanoma
  TGI: > 10 µM
SK-OV-3 ovarian
  TGI: > 10 µM
SN12C renal
  TGI: > 10 µM
SNB-19 CNS
  TGI: > 10 µM
SR leukemia
  TGI: > 10 µM
SW-620 colon
  TGI: > 10 µM
T-47D breast
  TGI: > 10 µM
TK-10 renal
  TGI: > 10 µM
U251 CNS
  TGI: > 10 µM
UACC-257 melanoma
  TGI: > 10 µM
UACC-62 melanoma
  TGI: > 10 µM
UO-31 renal
  TGI: 4.32 µM

## C=CC(OC(C)=O)c1ccc(OC(C)=O)cc1 (configuration not stated)
786-0 renal
  TGI: 2.99 µM
A498 renal
  TGI: 25.3 µM
A549 NSCLC
  TGI: 43.6 µM
ACHN renal
  TGI: 6.26 µM
BT-549 breast
  TGI: 23.9 µM
CAKI-1 renal
  TGI: 10 µM
COLO 205 colon
  TGI: 12.9 µM
DU-145 prostate
  TGI: 27.1 µM
EKVX NSCLC
  TGI: 41.4 µM
HCC-2998 colon
  TGI: 18.6 µM
HCT-116 colon
  TGI: 19.4 µM
HCT-15 colon
  TGI: 23.5 µM
HL-60(TB) leukemia
  TGI: 18.6 µM
HOP-62 NSCLC
  TGI: 12.3 µM
HOP-92 NSCLC
  TGI: 22.8 µM
HS 578T breast
  TGI: 16.6 µM
HT29 colon
  TGI: 32.7 µM
IGROV1 ovarian
  TGI: 29.5 µM
K-562 leukemia
  TGI: > 100 µM
KM12 colon
  TGI: 18.6 µM
LOX IMVI melanoma
  TGI: 9 µM
M14 melanoma
  TGI: 22.9 µM
MALME-3M melanoma
  TGI: 11.2 µM
MCF7 breast
  TGI: 26.5 µM
MDA-MB-231 breast
  TGI: 9.12 µM
MDA-MB-435
  TGI: 11.9 µM
MDA-N
  TGI: 10.9 µM
MOLT-4 leukemia
  TGI: > 44 µM
NCI-H226 lung
  TGI: 32.1 µM
NCI-H23 lung
  TGI: 37.3 µM
NCI-H460 lung
  TGI: 37.1 µM
NCI-H522 lung
  TGI: 3.57 µM
NCI/ADR-RES ovarian
  TGI: 54.3 µM
OVCAR-3 ovarian
  TGI: 16.4 µM
OVCAR-4 ovarian
  TGI: 37.5 µM
OVCAR-5 ovarian
  TGI: 28.1 µM
OVCAR-8 ovarian
  TGI: 11.7 µM
PC-3 prostate
  TGI: 7.82 µM
RPMI-8226 leukemia
  TGI: 5.92 µM
RXF 393 renal
  TGI: 28.1 µM
SF-268 CNS
  TGI: 10.7 µM
SF-295 CNS
  TGI: 22.1 µM
SF-539 CNS
  TGI: 4.78 µM
SK-MEL-2 melanoma
  TGI: 12 µM
SK-MEL-28 melanoma
  TGI: 28.6 µM
SK-MEL-5 melanoma
  TGI: 28.7 µM
SK-OV-3 ovarian
  TGI: 32.6 µM
SNB-19 CNS
  TGI: 28.7 µM
SNB-75 CNS
  TGI: 31.5 µM
SR leukemia
  TGI: 18.5 µM
T-47D breast
  TGI: 8.24 µM
TK-10 renal
  TGI: 4.99 µM
U251 CNS
  TGI: 5.65 µM
UACC-257 melanoma
  TGI: 16 µM
UACC-62 melanoma
  TGI: 28.1 µM
UO-31 renal
  TGI: 4.25 µM

— PubChem BioAssay (NCI)
